Results reported in patent US7981878B2, “Tumor treatment with gliotoxin derivatives” (priority 2005, dated 2011).

Legend:
Notch2 [1] = target: T1, Notch2 (Homo sapiens, UniProt Q04721); assay: Notch2 activity in PBMCs from healthy donors by EMSA; type: cell-based; conditions: TPA-stimulated PBMCs, 0.2 μM gliotoxin, 4 hours
T1 construct: endogenous in cells; host or cells: PBMCs from healthy donors, with or without TPA
Protocol: (§1) FIG. 4: Gliotoxin induces apoptosis in unstimulated as well as in TPA-stimulated B-CLL cells within 4 hours. Normal PBMCs (peripheral blood mononuclear cells) from healthy donors show a markedly lower Notch2 activity. Although gliotoxin inhibits Notch2 also in normal, TPA-stimulated cells, the gliotoxin-caused apoptosis rate is markedly lower in normal cells as compared to B-CLL cells. Non-stimulated and TPA stimulated PBMC's from healthy donors (HD) are less sensitive to 0.2 μM Gliotoxin despite a basal Notch2 activity. PBMC's and CLL cells were incubated with 0.2 μM Gliotoxin with or without TPA for 4 hours and the Notch2 activity as well as the percentage of apoptotic cells were determined by EMSA and FACS analysis, respectively.
(§2) After 4 hours of gliotoxin treatment, massive signs of the starting apoptosis (AnnexinV+) could already be recognized in B-CLL cells. This effect was increased by TPA (a phorbol ester which stimulates the activation of lymphocytes).

[2] = test system: HeLa cells (cervix carcinoma); assay: Cell count analysis HeLa; type: cell-based, human; conditions: 0.2 μM gliotoxin, within 72 hours
Protocol: (§3) FIG. 8 a-d: Effects of gliotoxin on cell counts of various human tumour cell lines in vitro. Cell counts of a) hepatocellular carcinoma cell lines HepG2, Huh7, SNU398, Hep3b, HeLa (cervix) and the cholangiocarcinoma cell line NEC as well as b) the pancreatic cancer cell line Panc-1 and the melanoma cell lines d) MelJuso, Meljuso-Bcl-2 (+) and 607B after 72 h treatment with 200 nM gliotoxin; c-d) Cell count dose range experiments with c) pancreatic carcinoma cell lines Panc-1 and MiaPaCa as well as melanoma cell lines MelJuso, 518A2 and 607B using 25, 50 100 and 200 nM gliotoxin for 24 h. All data are given relative to control ±standard deviation.
(§4) Tumour cells were seeded at a density of 10,000 cells/well in 24-well plates. 24 h after seeding, medium containing gliotoxin was added to yield desired concentrations of gliotoxin. At time points indicated, culture medium was removed by suction. Adherent cells were washed with DPBS (Cambrex, Verviers, Belgium) and incubated with trypsin (Gibco) at 37° C. Detached cells were transferred to test tubes containing Cellpack isotonic fluid (Sysmex Europe, Bornbarch, Germany) and counted with a Coulter Z1 electronic cell counter (Beckman Coulter, Bedford, UK).

[3] = test system: cultures from animal cells; conditions: cited from earlier work
[4] = test system: MiaPaCa (pancreas carcinoma); assay: Cell count analysis MiaPaCa; type: cell-based, human; conditions: MiaPaCa, 25, 50, 100 and 200 nM, 24 h
Protocol: as §3, §4

[5] = test system: Panc-1 (pancreas carcinoma); assay: Cell count analysis Panc-1; type: cell-based, human
Protocol: as §3, §4

[6] = test system: SH1 (hairy cell carcinoma); assay: Apoptosis FACS in leukaemia cell line SH1; type: cell-based; conditions: SH1, 0.2 μM gliotoxin, 24 h
Protocol: FIG. 7: (A) The apoptotic activity of gliotoxin on further B-CLL patient samples (CLL4-CLL8) is illustrated. The (non-Notch2-associated) leukaemia cell lines (or the leukaemia cell lines not characterised by ligand-independent Notch2 fragments) Jurkat (T-ALL), SH1 (hairy cell carcinoma), RL-7 and K562 (CML) are resistant to a treatment with 0.2 μM (corresponding to 60 ng/ml) of gliotoxin. Cells were incubated for 24 h+/−gliotoxin, and the percentage of apoptotic cells (probidium-iodide+/annexinV+) was determined by means of FACS analysis. In none of the 4 non-Notch2-associated cell lines indicated, the application of 0.2 μM of gliotoxin led to a significant induction of apoptosis within 24 hours. The cytotoxic effect of Gliotoxin correlates with the Notch2 activity in leukemias. (B) Corresponding EMSA showing the activity of Notch2 in B-CLL cells and in leukemic cell lines (Jurkat, SH1, RL7, and K562).

Notch2 [7] = assay: Notch2 activity band shift assay in 518A2; type: cell-based, human; conditions: 518A2, 200 nM gliotoxin, maximum at 24 h
Protocol: FIG. 10 a-b: Effects of gliotoxin on Notch2 regulation and apoptosis. The melanoma cell line 518A2 (A) and the pancreatic cancer cell line Panc-1 (B) were treated with 200 nM gliotoxin or vehicle control for 24 h Notch2 activity was analysed by band shift assay. Apoptosis was measured as annexin V and 7-AAD double positivity by FACS. Data are given as percentage of apoptotic cells ±standard deviation.
500,000 cells were seeded on 12 cm^2 plates for 24 h and then treated with 200 nM gliotoxin. At the time points as indicated cells were harvested and immediately frozen at −80° C. The band shift assay was performed as described for B-CLL.

CD23 = CD23 expression (Notch2 target gene) in B-CLL cells by FACS; type: cell-based, human; conditions: 0.2 μM gliotoxin, 24 h
Protocol: (§5) FIG. 3: Gliotoxin is a potent Notch2 trans-activation inhibitor in B-CLL cells. (A) EMSA showing the inhibition of DNA-bound Notch2IC complexes in the presence of 0.2 μg Gliotoxin. B-CLL samples (n=10) were cultured in the presence of 1 ng/ml TPA with or without 0.2 μM Gliotoxin for 24 hours. Nuclear extracts were subjected to EMSA using a oligonucleotide probe spanning a well defined CBF1/NotchIC binding site derived from the CD23a promoter. (B). Corresponding FACS analysis (plus 10 additional B-CLL samples) showing the downregulation of the Notch2 target gene CD23 as well as the induction of apoptosis of Gliotoxin treated B-CLL samples. Columnes represent the percentage of CD19^+CD23^+ (grey bars) and apoptotic cells (black bars: including early apoptotic cells single positive for AnnexinV, and late apoptotic cells double positive for AnnexinV and probidium iodide), respectively.
As drug screening model, a cell culture system was established which conserves the phenotype of freshly isolated B-CLL cells (3×10^6 B-CLL cells/ml RPMI medium+10% FCS, supplemented with 1 ng/ml of TPA). Notch2 activity in the cell nucleus is determined by means of EMSA (electrophoretic mobility shift assay) experiments, and the cell viability (Probidium iodide/annexinV) and CD23 expression (Notch2 target gene) is determined by means of FACS (flow cytometry) analyses, respectively. […]

B-CLL cells = assay: Apoptosis of B-CLL cells by FACS (Probidium iodide/annexinV); type: cell-based, human; conditions: for apoptosis: 0.2 μM gliotoxin, 4 hours
Protocol: as §5, §1
As drug screening model, a cell culture system was established which conserves the phenotype of freshly isolated B-CLL cells (3×10^6 B-CLL cells/ml RPMI medium+10% FCS, supplemented with 1 ng/ml of TPA). Notch2 activity in the cell nucleus is determined by means of EMSA (electrophoretic mobility shift assay) experiments, and the cell viability (Probidium iodide/annexinV) and CD23 expression (Notch2 target gene) is determined by means of FACS (flow cytometry) analyses, respectively.
B-CLL cells were cultured for 24 h in the presence of 0.2 μM/ml of gliotoxin. This treatment led to a dramatic loss of the transcriptional Notch2 activity, as shown in the following representative EMSA (FIG. 3).
as §2

[8] = test system: HepG2 (hepatocellular carcinoma); assay: Cell count analysis HepG2; type: cell-based, human; conditions: HepG2, 200 nM gliotoxin, 72 h
Protocol: as §3, §4

T1 sequence (Q04721 1697-2471 limits assumed): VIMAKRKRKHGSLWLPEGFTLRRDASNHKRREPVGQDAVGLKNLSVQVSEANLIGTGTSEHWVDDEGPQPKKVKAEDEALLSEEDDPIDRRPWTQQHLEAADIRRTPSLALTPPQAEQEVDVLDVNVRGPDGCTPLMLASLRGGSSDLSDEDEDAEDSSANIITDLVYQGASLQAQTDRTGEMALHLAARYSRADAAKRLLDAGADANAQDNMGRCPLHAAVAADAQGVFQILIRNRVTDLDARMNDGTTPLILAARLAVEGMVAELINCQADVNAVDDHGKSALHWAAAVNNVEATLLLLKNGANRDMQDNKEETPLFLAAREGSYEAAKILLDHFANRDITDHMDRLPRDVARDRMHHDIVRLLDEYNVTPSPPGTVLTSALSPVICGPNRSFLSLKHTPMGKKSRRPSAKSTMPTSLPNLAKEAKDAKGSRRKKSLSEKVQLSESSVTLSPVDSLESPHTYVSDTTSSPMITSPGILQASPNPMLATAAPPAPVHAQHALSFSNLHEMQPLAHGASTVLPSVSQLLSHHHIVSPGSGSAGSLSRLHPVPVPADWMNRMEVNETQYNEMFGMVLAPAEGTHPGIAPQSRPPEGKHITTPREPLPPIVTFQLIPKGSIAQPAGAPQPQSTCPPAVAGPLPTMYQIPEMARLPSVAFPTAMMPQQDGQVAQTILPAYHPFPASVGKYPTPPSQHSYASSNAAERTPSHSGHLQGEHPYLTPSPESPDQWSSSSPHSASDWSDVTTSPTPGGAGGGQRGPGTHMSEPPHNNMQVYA

## CN1C(=O)[C@]23CC4=CC=C[C@H](O)[C@H]4N2C(=O)[C@@]1(CO)SS3 [gliotoxin, [3R-(3α,5aβ,6β,10aα)]-2,3,5a,6-tetrahydro-6-hydroxy-3-(hydroxymethyl)-2-methyl-10H-3,10a-epi-dithiopyrazino[1,2-a]indol-1,4-dion]
Notch2 [1]
  physiologic Notch2 activity (EMSA): marked reduction
[2]
  effect on the cell count: no significant effect
[3]
  concentration at which the effect changes towards necrosis: more than 10 μM
  concentration for complete necrosis of the cell cultures: ≥ 50 µM
[4]
  cytotoxicity in dose range experiment (cell count): clear dose dependent cytotoxicity
[5]; Panc-1, 0.2 μM (60 ng/ml)
  response: ~100%
[5]; Panc-1, 200 nM gliotoxin, 72 h
  effect on cell count: very effective
[5]; Panc-1, 25, 50, 100 and 200 nM, 24 h
  cytotoxicity in dose range experiment (cell count): clear dose dependent cytotoxicity
[6]
  induction of apoptosis (probidium-iodide+/annexinV+): resistant
Notch2 [7]
  Notch-2 activity (band shift assay): time dependent down regulation
CD23
  CD23 expression: loss of the CD23 expression
B-CLL cells; B-CLL cells cultured 24 h with 0.2 μM gliotoxin, n=10
  mean value of apoptosis: 73%
B-CLL cells; B-CLL-cases, 0.2 μM (60 ng/ml)
  response: ~100%
B-CLL cells; TPA-stimulated B-CLL cells
  apoptosis: 73%
B-CLL cells; non-stimulated B-CLL cells
  apoptosis: 54%
[8]
  mean reduction of cell numbers compared to vehicle treated controls: 67%
